Results on 17 molecules are retold here after patent publication US20260092061A1, “COMPOUNDS FOR TARGETED PROTEIN DEGRADATION” (Amphista Therapeutics Limited, priority 2022, published 2026).

For this experiment, the target named is T1, BRD9 (Homo sapiens, UniProt Q9H8M2).
T1 sequence (Q9H8M2 1-597): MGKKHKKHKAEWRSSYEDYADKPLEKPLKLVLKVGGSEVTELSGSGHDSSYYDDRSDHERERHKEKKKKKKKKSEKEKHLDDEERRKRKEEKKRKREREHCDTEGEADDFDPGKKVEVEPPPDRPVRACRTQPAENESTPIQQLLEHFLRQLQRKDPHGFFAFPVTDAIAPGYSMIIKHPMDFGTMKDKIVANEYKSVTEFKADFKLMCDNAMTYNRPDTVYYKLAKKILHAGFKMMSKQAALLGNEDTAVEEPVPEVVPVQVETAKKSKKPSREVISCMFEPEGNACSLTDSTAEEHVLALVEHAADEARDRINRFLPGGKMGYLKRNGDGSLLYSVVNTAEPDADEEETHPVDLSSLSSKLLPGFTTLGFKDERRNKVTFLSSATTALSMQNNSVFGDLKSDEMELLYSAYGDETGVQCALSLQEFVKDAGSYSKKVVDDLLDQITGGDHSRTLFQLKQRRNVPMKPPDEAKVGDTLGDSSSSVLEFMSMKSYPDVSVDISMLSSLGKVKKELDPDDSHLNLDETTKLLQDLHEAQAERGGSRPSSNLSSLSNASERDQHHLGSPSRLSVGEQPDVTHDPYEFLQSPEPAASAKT
As to the kind of experiment: Degradation of BRD9 (IF), immunofluorescence in MV4-11 cells, 24 hours (Assay Protocol 2). The class given is cell-based. The arrangement: A suspension of MV4-11 cells (ATCC CRL-9591) was prepared; host or cells: MV4-11. The following applies: BRD9 degradation. In outline:
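MV4-11 cells treated with compound 24 h at 37° C., then fixed, permeabilised and immunostained for BRD9 (anti-BRD9 E4Q3F, Alexa 647 secondary, Hoechst counterstain). High-content imaging quantified nuclear BRD9 signal; % BRD9 remaining normalised to DMSO and 100 nM CFT-8634 controls.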

[1] abbreviates: Assay protocol 2, read-out: DC50.
Where [2] appears, read: MV4-11, Assay protocol 2, read-out: Dmax.

Read-outs that look alike come from different tables or passages of the source.

In the case of `COc1cc(-c2cn(C)c(=O)c(C)c2C)cc(OC)c1CN1CCN(Cc2cccc3c2CCN(C(=O)/C(C#N)=C/C(C)(C)CF)C3C(C)C)CC12CC2` (single isomer, unassigned) [Compound C102, (E/Z)-2-(5-((4-(2,6-dimethoxy-4-(1,4,5-trimethyl-6-oxo-1,6-dihydropyridin-3-yl)benzyl)-4,7-diazaspiro[2.5]octan-7-yl)methyl)-1-isopropyl-1,2,3,4-tetrahydroisoquinoline-2-carbonyl)-5-fluoro-4,4-dimethylpent-2-enenitrile], the half-maximal degradation concentration (DC50) under setting [1] was 0.025 to 1 µM. For the same molecule, the Dmax under setting [2] is 40 to 70%.

`COc1cc(-c2cn(C)c(=O)c(C)c2C)cc(OC)c1CN1CCN(Cc2cccc3c2CCN(C(=O)/C(C#N)=C/c2cccc(Br)n2)C3C)C2(CC2)C1` (mixture of isomers) [Compound C29]: under setting [1], the DC50 lay in the range of 0.00125 to 0.01 µM. Further, the Dmax under setting [2] was in the range of 70 to 75%.

As to `COc1cc(-c2cn(C)c(=O)c(C)c2C)cc(OC)c1CN1CCN(Cc2cccc3c2CCN(C(=O)/C(C#N)=C/C2(C)CCCCC2)C3C)C2(CC2)C1` (mixture of isomers) [Compound B143, (E/Z)-2-(5-((7-(2,6-dimethoxy-4-(1,4,5-trimethyl-6-oxo-1,6-dihydropyridin-3-yl)benzyl)-4,7-diazaspiro[2.5]octan-4-yl)methyl)-1-methyl-1,2,3,4-tetrahydroisoquinoline-2-carbonyl)-3-(1-methylcyclohexyl)acrylonitrile], the half-maximal degradation concentration (DC50) under setting [1] is 0.01 to 0.025 µM. Also, under setting [2], the Dmax was 70 to 75%.

As to `COc1cc(-c2cn(C)c(=O)c(C)c2C)cc(OC)c1CN1CC(Cc2cccc3c2CCN(C(=O)/C(C#N)=C/C(C)(C)C)C3C)C1` (centres unmarked) [Compound C49], the Dmax under setting [2] was in the range of 40 to 70%.

As for `CCC1c2cccc(CN3CCN(Cc4c(OC)cc(-c5cn(C)c(=O)c(C)c5C)cc4OC)CC34CC4)c2CCN1C(=O)/C(C#N)=C/C(C)(C)C` (mixture of isomers) [Compound C15, (E/Z)-2-(5-((7-(2,6-dimethoxy-4-(1,4,5-trimethyl-6-oxo-1,6-dihydropyridin-3-yl)benzyl)-4,7-diazaspiro[2.5]octan-4-yl)methyl)-1-ethyl-1,2,3,4-tetrahydroisoquinoline-2-carbonyl)-4,4-dimethylpent-2-enenitrile], the DC50 under setting [1] is less than 0.00125 µM. Moreover, under setting [2], the maximal degradation (Dmax) is greater than 75%.

Take `COc1cc(-c2cn(C)c(=O)c(C)c2C)cc(OC)c1CN1CCN(Cc2ccc3c(c2)[C@H](C)N(C(=O)/C(C#N)=C/C(C)(C)C)CC3)C2(CC2)C1` (single isomer, unassigned) [Compound C36, (E/Z)-2-(7-((7-(2,6-dimethoxy-4-(1,4,5-trimethyl-6-oxo-1,6-dihydropyridin-3-yl)benzyl)-4,7-diazaspiro[2.5]octan-4-yl)methyl)-1-methyl-1,2,3,4-tetrahydroisoquinoline-2-carbonyl)-4,4-dimethylpent-2-enenitrile]: the DC50 under setting [1] was 0.01 to 0.025 µM. Further, under setting [2], the greatest degradation seen (Dmax) was in the range of 40 to 70%.

As to `COc1cc(-c2cn(C)c(=O)c(C)c2C)cc(OC)c1CN1CCN(Cc2cccc3c2CCN(C(=O)/C(C#N)=C/c2cccnc2OC)C3C)CC1` (mixture of isomers) [Compound B70, (E/Z)-2-(5-((4-(2,6-dimethoxy-4-(1,4,5-trimethyl-6-oxo-1,6-dihydropyridin-3-yl)benzyl)piperazin-1-yl)methyl)-1-methyl-1,2,3,4-tetrahydroisoquinoline-2-carbonyl)-3-(2-methoxypyridin-3-yl)acrylonitrile], under setting [2], the Dmax is 40 to 70%.

On to `COc1cc(-c2cn(C)c(=O)c(C)c2C)cc(OC)c1CN1CCCN(Cc2cccc3c2CCN(C(=O)/C(C#N)=C/C(C)(C)CF)[C@@H]3C(C)C)CC1` (mixture of isomers) [Compound C84, (E/Z)-2-(5-((4-(2,6-dimethoxy-4-(1,4,5-trimethyl-6-oxo-1,6-dihydropyridin-3-yl)benzyl)-1,4-diazepan-1-yl)methyl)-1-isopropyl-1,2,3,4-tetrahydroisoquinoline-2-carbonyl)-5-fluoro-4-dimethylpent-2-enenitrile], for which, under setting [1], the 50% degradation concentration (DC50) is 0.00125 to 0.01 µM. The Dmax under setting [2] is greater than 75%.

For the molecule `COc1cc(-c2cn(C)c(=O)c(C)c2C)cc(OC)c1CN1CCN(Cc2ccc3c(c2)C(C)N(C(=O)/C(C#N)=C/C(C)(C)C)CC3)C2(CC2)C1` (mixture of isomers) [Compound C106, (E/Z)-2-(7-((7-(2,6-dimethoxy-4-(1,4,5-trimethyl-6-oxo-1,6-dihydropyridin-3-yl)benzyl)-4,7-diazaspiro[2.5]octan-4-yl)methyl)-1-methyl-1,2,3,4-tetrahydroisoquinoline-2-carbonyl)-4,4-dimethylpent-2-enenitrile], under setting [1], the half-maximal degradation concentration (DC50) is less than 0.00125 µM. Under setting [2], the greatest degradation seen (Dmax) is greater than 75%.

In the case of `CC[C@H]1c2cccc(CN3CCN(Cc4c(OC)cc(-c5cn(C)c(=O)c(C)c5C)cc4OC)C4(CC4)C3)c2CCN1C(=O)/C(C#N)=C/C(C)(C)C` (single isomer, unassigned) [Compound C90, (E/Z)-2-(5-((4-(2,6-dimethoxy-4-(1,4,5-trimethyl-6-oxo-1,6-dihydropyridin-3-yl)benzyl)-4,7-diazaspiro[2.5]octan-7-yl)methyl)-1-ethyl-1,2,3,4-tetrahydroisoquinoline-2-carbonyl)-4,4-dimethylpent-2-enenitrile], the DC50 under setting [1] is greater than 1 µM. Under setting [2], the Dmax was 40 to 70%.

For `COc1cc(-c2cn(C)c(=O)c(C)c2C)cc(OC)c1CN1CCC(COc2cccc3c2CCN(C(=O)/C(C#N)=C/c2cccc(Br)n2)C3C)CC1` (mixture of isomers) [Compound B95, (E/Z)-3-(6-bromopyridin-2-yl)-2-(5-((1-(2,6-dimethoxy-4-(1,4,5-trimethyl-6-oxo-1,6-dihydropyridin-3-yl)benzyl)piperidin-4-yl)methoxy)-1-methyl-1,2,3,4-tetrahydroisoquinoline-2-carbonyl)acrylonitrile], the DC50 under setting [1] is less than 0.00125 µM. The greatest degradation seen (Dmax) under setting [2] was 70 to 75%.

Turning to `COc1cc(-c2cn(C)c(=O)c(C)c2C)cc(OC)c1CN1CCN(Cc2cccc3c2CCN(C(=O)/C(C#N)=C/C(C)(C)C)C3C(C)C)CC1` (mixture of isomers) [Compound C7, (E/Z)-2-(5-((4-(2,6-dimethoxy-4-(1,4,5-trimethyl-6-oxo-1,6-dihydropyridin-3-yl)benzyl)piperazin-1-yl)methyl)-1-isopropyl-1,2,3,4-tetrahydroisoquinoline-2-carbonyl)-4,4-dimethylpent-2-enenitrile], the DC50 under setting [1] was less than 0.00125 µM. Moreover, the greatest degradation seen (Dmax) under setting [2] was greater than 75%.

As to `COCC1(OC)c2cccc(CN3CCN(Cc4c(OC)cc(-c5cn(C)c(=O)c(C)c5C)cc4OC)CC34CC4)c2CCN1C(=O)/C(C#N)=C/C(C)(C)C` (mixture of isomers) [Compound C18, (E/Z)-2-(5-((7-(2,6-dimethoxy-4-(1,4,5-trimethyl-6-oxo-1,6-dihydropyridin-3-yl)benzyl)-4,7-diazaspiro[2.5]octan-4-yl)methyl)-1-methoxy-1-(methoxymethyl)-1,2,3,4-tetrahydroisoquinoline-2-carbonyl)-4,4-dimethylpent-2-enenitrile], the DC50 under setting [1] was in the range of 0.00125 to 0.01 µM. The maximal degradation (Dmax) under setting [2] is greater than 75%.

For `COc1cc(-c2cn(C)c(=O)c(C)c2C)cc(OC)c1CN(C)C1CCN(C(=O)/C(C#N)=C/c2cccc(Br)n2)CC1` [BRD9z, (E/Z)-3-(6-bromopyridin-2-yl)-2-(4-((2,6-dimethoxy-4-(1,4,5-trimethyl-6-oxo-1,6-dihydropyridin-3-yl)benzyl)(methyl)amino)piperidine-1-carbonyl)acrylonitrile], the Dmax (MV4-11, Table 4, determined according to Assay Protocol 2, read-out: Dmax^2) was greater than 70%. Also, the DC50 (Table 4, determined according to Assay Protocol 2, read-out: DC50^2) was greater than 0.2 µM.

Take `COc1cc(-c2cn(C)c(=O)c(C)c2C)cc(OC)c1CN1CC(N(C)Cc2ccc3c(c2)[C@H](C)N(C(=O)/C(C#N)=C/C(C)(C)C)CC3)C1` (single isomer, unassigned) [Compound C70, (E/Z)-2-(7-(((1-(2,6-dimethoxy-4-(1,4,5-trimethyl-6-oxo-1,6-dihydropyridin-3-yl)benzyl)460zetidine-4-yl)(methyl)amino)methyl)-1-methyl-1,2,3,4-tetrahydroisoquinoline-2-carbonyl)-4,4-dimethylpent-2-enenitrile]: under setting [1], the DC50 was 0.025 to 1 µM. In addition, under setting [2], the Dmax was 40 to 70%.

Take `COc1cc(-c2cn(C)c(=O)c(C)c2C)cc(OC)c1CN1CCC(COc2ccc3c(c2)[C@H](C)N(C(=O)/C(C#N)=C/C(C)(C)C)CC3)CC1` [Compound C61]: under setting [1], the DC50 was less than 0.00125 µM. Also, the Dmax under setting [2] is greater than 75%.

Turning to `COc1cc(-c2cn(C)c(=O)c(C)c2C)cc(OC)c1CN1CCN(Cc2cccc3c2CCN(C(=O)/C(C#N)=C/C2CCC(F)(F)CC2)C3C)CC1` (mixture of isomers) [Compound B72, (E/Z)-3-(4,4-difluorocyclohexyl)-2-(5-((4-(2,6-dimethoxy-4-(1,4,5-trimethyl-6-oxo-1,6-dihydropyridin-3-yl)benzyl)piperazin-1-yl)methyl)-1-methyl-1,2,3,4-tetrahydroisoquinoline-2-carbonyl)acrylonitrile], the 50% degradation concentration (DC50) under setting [1] lay in the range of 0.00125 to 0.01 µM. Also, under setting [2], the Dmax fell in the range of 40 to 70%.

A word on the DC50: it is the concentration giving 50% degradation. One may read the Dmax as the greatest extent of degradation seen.
